EC50 data for 30 compounds are collected here from patent US10913727B2, “Modulators of the integrated stress pathway” (Calico Life Sciences LLC, priority 2016, dated 2021).

The assay deals with HEK293T cells carrying the ATF4 luciferase reporter. The experiment in a line: ATF4-Luc assay, in vitro model of Vanishing Cell White Matter Disease (VWMD). In kind it is cell-based. Conditions: Homo sapiens, HEK-293T, 1 μg/mL tunicamycin, 7 hours, One Glo luminescence. In outline:
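Compound at 200 nM and tunicamycin at 1 μg/mL were given together for 7 h to HEK293T cells stably transduced with an ATF4 5′-UTR-driven firefly luciferase reporter. Read-out by luminescence, reported as EC50.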
As to `Cn1nc(C(F)F)cc1C(=O)NC12CCC(NC(=O)COc3ccc(Cl)c(F)c3)(CC1)C[C@@H]2O` [Compound 413, N-{(2S)-4-[2-(4-chloro-3-fluorophenoxy)acetamido]-2-hydroxybicyclo[2.2.2]octan-1-yl}-3-(difluoromethyl)-1-methyl-1H-pyrazole-5-carboxamide], the EC50 was under 50 nM.
The figure for `O=C(COc1ccc(Cl)c(F)c1)NC12CCC(NC(=O)c3cc(Cl)no3)(CC1)CC2O` (stereo not drawn) [Compound 414, 3-chloro-N-{4-[2-(4-chloro-3-fluorophenoxy)acetamido]-3-hydroxybicyclo[2.2.2]octan-1-yl}-1,2-oxazole-5-carboxamide] is 50 to 250 nM; for `O=C(COc1ccc(Cl)c(F)c1)NC12CC(Nc3cc(-c4ccc(Cl)cc4)ccn3)(C1)C2` [Compound 415, 2-(4-chloro-3-fluorophenoxy)-N-(3-{[4-(4-chlorophenyl)pyridin-2-yl]amino}bicyclo[1.1.1]pentan-1-yl)acetamide] it is over 2000 nM; for `O=C(COc1ccc(Cl)c(F)c1)NC12CC(Nc3cnn(CC(F)(F)F)c(=O)c3Cl)(C1)C2` [Compound 416, 2-(4-chloro-3-fluorophenoxy)-N-(3-{[5-chloro-6-oxo-1-(2,2,2-trifluoroethyl)-1,6-dihydropyridazin-4-yl]amino}bicyclo[1.1.1]pentan-1-yl)acetamide] it is over 2000 nM.
In the case of `O=C(COc1ccc(Cl)c(F)c1)NC12CC(Nc3c(Cl)cnn(CC(F)(F)F)c3=O)(C1)C2` [Compound 417, 2-(4-chloro-3-fluorophenoxy)-N-(3-{[5-chloro-3-oxo-2-(2,2,2-trifluoroethyl)-2,3-dihydropyridazin-4-yl]amino}bicyclo[1.1.1]pentan-1-yl)acetamide], the concentration for a half-maximal effect (EC50) was 250 to 1000 nM.
Regarding `O=C(COc1ccc2c(c1)OC(F)(F)O2)NC12CC(NC(=O)c3ccncc3)(C1)C2` [Compound 418, N-(3-{2-[(2,2-difluoro-2H-1,3-benzodioxol-5-yl)oxy]acetamido}bicyclo[1.1.1]pentan-1-yl)pyridine-4-carboxamide], the EC50 was over 2000 nM.
`O=C(COc1ccc(Cl)c(F)c1)NC12CC(NC(=O)c3cccc(CO)c3)(C1)C2` [Compound 419, N-{3-[2-(4-chloro-3-fluorophenoxy)acetamido]bicyclo[1.1.1]pentan-1-yl}-3-(hydroxymethyl)benzamide]: the concentration giving a half-maximal response (EC50) lay in the range of 250 to 1000 nM.
As to `CN(CC1CCC1)c1cnc(C(=O)NC23CC(NC(=O)COc4ccc(Cl)c(F)c4)(C2)C3)cn1` [Compound 420, N-{3-[2-(4-chloro-3-fluorophenoxy)acetamido]bicyclo[1.1.1]pentan-1-yl}-5-[(cyclobutylmethyl)(methyl)amino]pyrazine-2-carboxamide], the 50% effective concentration (EC50) was over 2000 nM.
Regarding `O=C(COc1ccc(Cl)c(F)c1)NC12CC(Nc3nnc(-c4ccc(Cl)cc4)o3)(C1)C2` [Compound 421, 2-(4-chloro-3-fluorophenoxy)-N-(3-{[5-(4-chlorophenyl)-1,3,4-oxadiazol-2-yl]amino}bicyclo[1.1.1]pentan-1-yl)acetamide], the concentration giving a half-maximal response (EC50) fell in the range of 250 to 1000 nM.
Consider `Cc1cc2c(NC34CC(NC(=O)COc5ccc6c(c5)OC(F)(F)O6)(C3)C4)nccn2n1` [Compound 422, 2-[(2,2-difluoro-2H-1,3-benzodioxol-5-yl)oxy]-N-{3-[(2-methylpyrazolo[1,5-a]pyrazin-4-yl)amino]bicyclo[1.1.1]pentan-1-yl}acetamide], for which the EC50 fell in the range of 50 to 250 nM.
The value for `Cc1cc2c(NC34CC(NC(=O)COc5ccc(OC(F)(F)F)cc5)(C3)C4)nccn2n1` [Compound 423, N-{3-[(2-methylpyrazolo[1,5-a]pyrazin-4-yl)amino]bicyclo[1.1.1]pentan-1-yl}-2-[4-(trifluoromethoxy)phenoxy]acetamide] was 250 to 1000 nM; that for `Cc1cc2c(NC34CC(NC(=O)COc5cccc(OC(F)(F)F)c5)(C3)C4)nccn2n1` [Compound 424, N-{3-[(2-methylpyrazolo[1,5-a]pyrazin-4-yl)amino]bicyclo[1.1.1]pentan-1-yl}-2-[3-(trifluoromethoxy)phenoxy]acetamide] was 1000 to 2000 nM.
Consider `O=C(COc1ccc(Cl)c(F)c1)NC12CC(NC(=O)c3ncc(C(F)F)s3)(C1)C2` [Compound 425, N-{3-[2-(4-chloro-3-fluorophenoxy)acetamido]bicyclo[1.1.1]pentan-1-yl}-5-(difluoromethyl)-1,3-thiazole-2-carboxamide], for which the EC50 is 250 to 1000 nM.
The value for `Cc1nn(C)c2c(NC34CC(NC(=O)COc5ccc(Cl)c(F)c5)(C3)C4)ncnc12` [Compound 426, 2-(4-chloro-3-fluorophenoxy)-N-{3-[(1,3-dimethyl-1H-pyrazolo[4,3-d]pyrimidin-7-yl)amino]bicyclo[1.1.1]pentan-1-yl}acetamide] was over 2000 nM; that for `O=C(COc1ccc(Cl)c(F)c1)NC12CC(Nc3ccnc(-c4ccc(Cl)cc4)n3)(C1)C2` [Compound 427, 2-(4-chloro-3-fluorophenoxy)-N-(3-{[2-(4-chlorophenyl)pyrimidin-4-yl]amino}bicyclo[1.1.1]pentan-1-yl)acetamide] was 250 to 1000 nM; that for `O=C(COc1ccc(Cl)c(F)c1)NC12CC(Nc3nc(Cl)cc4nccn34)(C1)C2` [Compound 428, 2-(4-chloro-3-fluorophenoxy)-N-{3-[(7-chloroimidazo[1,2-c]pyrimidin-5-yl)amino]bicyclo[1.1.1]pentan-1-yl}acetamide] was 250 to 1000 nM.
As for `Cc1nn(C)cc1-c1ccnc(NC23CC(NC(=O)COc4ccc(Cl)c(F)c4)(C2)C3)n1` [Compound 429, 2-(4-chloro-3-fluorophenoxy)-N-(3-{[4-(1,3-dimethyl-1H-pyrazol-4-yl)pyrimidin-2-yl]amino}bicyclo[1.1.1]pentan-1-yl)acetamide], the EC50 is over 2000 nM.
The figure for `CC(C)(O)/C=C/c1ccnc(C(=O)NC23CC(NC(=O)COc4ccc(Cl)c(F)c4)(C2)C3)c1` [Compound 430, N-{3-[2-(4-chloro-3-fluorophenoxy)acetamido]bicyclo[1.1.1]pentan-1-yl}-4-[(1E)-3-hydroxy-3-methylbut-1-en-1-yl]pyridine-2-carboxamide] is over 2000 nM.
The figure for `Cc1cc(C(=O)NC23CC(NC(=O)COc4ccc(Cl)c(Cl)c4)(C2)C3)on1` [Compound 431, N-{3-[2-(3,4-dichlorophenoxy)acetamido]bicyclo[1.1.1]pentan-1-yl}-3-methyl-1,2-oxazole-5-carboxamide] is 50 to 250 nM.
As to `CC(C)(O)CCc1ccnc(C(=O)NC23CC(NC(=O)COc4ccc(Cl)c(F)c4)(C2)C3)c1` [Compound 432, N-{3-[2-(4-chloro-3-fluorophenoxy)acetamido]bicyclo[1.1.1]pentan-1-yl}-4-(3-hydroxy-3-methylbutyl)pyridine-2-carboxamide], the EC50 is over 2000 nM.
On to `CC(C)(O)CCc1ccnc(C(=O)NC23CC(NC(=O)COc4ccc(Cl)c(Cl)c4)(C2)C3)c1` [Compound 433, N-{3-[2-(3,4-dichlorophenoxy)acetamido]bicyclo[1.1.1]pentan-1-yl}-4-(3-hydroxy-3-methylbutyl)pyridine-2-carboxamide], for which the EC50 is over 2000 nM.
Turning to `O=C(COc1ccc(Cl)c(F)c1)NC12CC(Nc3nccn4cccc34)(C1)C2` [Compound 434, 2-(4-chloro-3-fluorophenoxy)-N-{3-[(pyrrolo[1,2-a]pyrazin-1-yl)amino]bicyclo[1.1.1]pentan-1-yl}acetamide], the EC50 was in the range of 250 to 1000 nM.
Turning to `Cc1nn(C)c2ncnc(NC34CC(NC(=O)COc5ccc(Cl)c(F)c5)(C3)C4)c12` [Compound 435, 2-(4-chloro-3-fluorophenoxy)-N-{3-[(1,3-dimethyl-1H-pyrazolo[3,4-d]pyrimidin-4-yl)amino]bicyclo[1.1.1]pentan-1-yl}acetamide], the EC50 was over 2000 nM.
The figure for `Cc1cc2c(NC34CC(NC(=O)COc5ccc(F)c(F)c5)(C3)C4)nccn2n1` [Compound 436, 2-(3,4-difluorophenoxy)-N-{3-[(2-methylpyrazolo[1,5-a]pyrazin-4-yl)amino]bicyclo[1.1.1]pentan-1-yl}acetamide] is 50 to 250 nM; for `Cn1nc(C(F)F)cc1C(=O)NC12CCC(NC(=O)COc3ccc(Cl)c(F)c3)(CC1)C(O)C2` (stereo not drawn) [Compound 437, N-{4-[2-(4-chloro-3-fluorophenoxy)acetamido]-3-hydroxybicyclo[2.2.2]octan-1-yl}-3-(difluoromethyl)-1-methyl-1H-pyrazole-5-carboxamide] it is under 50 nM; for `Cc1cc2c(NC34CC(NC(=O)COc5ccc(OC(F)F)cc5)(C3)C4)nccn2n1` [Compound 438, 2-[4-(difluoromethoxy)phenoxy]-N-{3-[(2-methylpyrazolo[1,5-a]pyrazin-4-yl)amino]bicyclo[1.1.1]pentan-1-yl}acetamide] it is 250 to 1000 nM.
Regarding `Cc1cc2c(NC34CC(NC(=O)COc5cccc(OC(F)F)c5)(C3)C4)nccn2n1` [Compound 439, 2-[3-(difluoromethoxy)phenoxy]-N-{3-[(2-methylpyrazolo[1,5-a]pyrazin-4-yl)amino]bicyclo[1.1.1]pentan-1-yl}acetamide], the EC50 was over 2000 nM.
Consider `O=C(COc1ccc(Cl)c(F)c1)NC12CC(NC(=O)c3ccc(OC(F)F)nc3)(C1)C2` [Compound 440, N-{3-[2-(4-chloro-3-fluorophenoxy)acetamido]bicyclo[1.1.1]pentan-1-yl}-6-(difluoromethoxy)pyridine-3-carboxamide], for which the EC50 lay in the range of 50 to 250 nM.
Take `Cc1cc(C(=O)NC23CC(NC(=O)COc4ccc(Cl)c(Cl)c4)(C2)C3)n(C)n1` [Compound 441, N-{3-[2-(3,4-dichlorophenoxy)acetamido]bicyclo[1.1.1]pentan-1-yl}-1,3-dimethyl-1H-pyrazole-5-carboxamide]: the 50% effective concentration (EC50) was under 50 nM.
On to `Cc1cc(C(=O)NC23CC(NC(=O)COc4ccc5c(c4)OC(F)(F)O5)(C2)C3)n(C)n1` [Compound 442, N-(3-{2-[(2,2-difluoro-2H-1,3-benzodioxol-5-yl)oxy]acetamido}bicyclo[1.1.1]pentan-1-yl)-1,3-dimethyl-1H-pyrazole-5-carboxamide], for which the EC50 is 250 to 1000 nM.
